Measurements from patent US10695337B2, “Piperidin-4-yl azetidine derivatives as JAK1 inhibitors” (Incyte Corporation, priority 2010, dated 2020).

Target: human JAK1 (a.a. 837-1142)
Experiment: In vitro JAK kinase assay (HTRF, phosphorylation of a biotinylated peptide), JAK1
Format: biochemical
Conditions: measured at 1 mM ATP; JAK2 IC50 / JAK1 IC50
In short: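 Phosphorylation of a biotinylated peptide by purified His-tagged JAK catalytic domains (insect-cell baculovirus expression) ran 1 hr at room temperature. After stopping with EDTA, Eu-Py20 and SA-APC were bound for 40 minutes and HTRF measured.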

IC50 Ratio JAK2/JAK1	SMILES
9.1	N#CCC1(n2ccc(-c3ncnc4[nH]ccc34)c2)CN(C2CCN(C(=O)Nc3ncccc3F)CC2)C1 [Example 292, 4-{3-(cyanomethyl)-3-[3-(7H-pyrrolo[2,3-d]pyrimidin-4-yl)-1H-pyrrol-1-yl]azetidin-1-yl}-N-(3-fluoropyridin-2-yl)piperidine-1-carboxamide]
3.4	N#CCC1(n2ccc(-c3ncnc4[nH]ccc34)c2)CN(C2CCN(C(=O)Nc3ccc(Cl)cc3C#N)CC2)C1 [Example 293, 4-{3-(cyanomethyl)-3-[3-(7H-pyrrolo[2,3-d]pyrimidin-4-yl)-1H-pyrrol-1-yl]azetidin-1-yl}-N-(4-chloro-2-cyanophenyl)piperidine-1-carboxamide]
5.1	N#CCC1(n2cc(-c3ccnc4[nH]ccc34)cn2)CN(C2CCN(C(=O)c3ccc(C#N)cc3F)CC2)C1 [Example 295, 4-[(4-{3-(cyanomethyl)-3-[4-(1H-pyrrolo[2,3-b]pyridin-4-yl)-1H-pyrazol-1-yl]azetidin-1-yl}piperidin-1-yl)cabonyl]-3-fluorobenzonitrile]
4.6	N#CCC1(n2cc(-c3ccnc4[nH]ccc34)cn2)CN(C2CCN(C(=O)c3ccc(O)c(F)c3)CC2)C1 [Example 296]
10.0	N#CCC1(n2cc(-c3ccnc4[nH]ccc34)cn2)CN(C2CCN(C(=O)c3ccc(O)cc3F)CC2)C1 [Example 297, {1-[1-(2-fluoro-4-hydroxybenzoyl)piperidin-4-yl]-3-[4-(1H-pyrrolo[2,3-b]pyridin-4-yl)-1H-pyrazol-1-yl]azetidin-3-yl}acetonitrile]
2.8	N#CCC1(n2cc(-c3ccnc4[nH]ccc34)cn2)CN(C2CCN(C(=O)c3cc(C(F)(F)F)ncc3Cl)CC2)C1 [Example 298, {1-{1-[5-chloro-2-(trifluoromethyl)isonicotinoyl]piperidin-4-yl}-3-[4-(1H-pyrrolo[2,3-b]pyridin-4-yl)-1H-pyrazol-1-yl]azetidin-3-yl}acetonitrile]
6.6	N#CCC1(n2cc(-c3ccnc4[nH]ccc34)cn2)CN(C2CCN(C(=O)c3ccnc(C(F)(F)F)n3)CC2)C1 [Example 299, [3-[4-(1H-pyrrolo[2,3-b]pyridin-4-yl)-1H-pyrazol-1-yl]-1-(1-{[2-(trifluoromethyl)pyrimidin-4-yl]carbonyl}piperidin-4-yl)azetidin-3-yl]acetonitrile]
3.3	N#CCC1(n2cc(-c3ccnc4[nH]ccc34)cn2)CN(C2CCN(C(=O)c3cnc(C(F)(F)F)cn3)CC2)C1 [Example 301, [3-[4-(1H-pyrrolo[2,3-b]pyridin-4-yl)-1H-pyrazol-1-yl]-1-(1-{[5-(trifluoromethyl)pyrazin-2-yl]carbonyl}piperidin-4-yl)azetidin-3-yl]acetonitrile]
6.5	N#CCC1(n2cc(-c3ccnc4[nH]ccc34)cn2)CN(C2CCN(C(=O)C3CCC(F)(F)CC3)CC2)C1 [Example 302, {1-{1-[(4,4-difluorocyclohexyl)carbonyl]piperidin-4-yl}-3-[4-(1H-pyrrolo[2,3-b]pyridin-4-yl)-1H-pyrazol-1-yl]azetidin-3-yl}acetonitrile]
16.0	N#CCC1(n2cc(-c3ccnc4[nH]ccc34)cn2)CN(C2CCN(C(=O)Nc3ccc(F)cc3Cl)CC2)C1 [Example 305, N-(2-chloro-4-fluorophenyl)-4-{3-(cyanomethyl)-3-[4-(1H-pyrrolo[2,3-b]pyridin-4-yl)-1H-pyrazol-1-yl]azetidin-1-yl}piperidine-1-carboxamide]
3.5	COc1ncccc1NC(=O)N1CCC(N2CC(CC#N)(n3cc(-c4ccnc5[nH]ccc45)cn3)C2)CC1 [Example 306, 4-{3-(cyanomethyl)-3-[4-(1H-pyrrolo[2,3-b]pyridin-4-yl)-1H-pyrazol-1-yl]azetidin-1-yl}-N-(2-methoxypyridin-3-yl)piperidine-1-carboxamide]
8.8	N#CCC1(n2cc(-c3ccnc4[nH]ccc34)cn2)CN(C2CCN(C(=O)Nc3ccncc3C(F)(F)F)CC2)C1 [Example 307, 4-{3-(cyanomethyl)-3-[4-(1H-pyrrolo[2,3-b]pyridin-4-yl)-1H-pyrazol-1-yl]azetidin-1-yl}-N-[3-(trifluoromethyl)pyridin-4-yl]piperidine-1-carboxamide]
5.3	N#CCC1(n2cc(-c3ccnc4[nH]ccc34)cn2)CN(C2CCN(C(=O)Nc3ccccc3F)CC2)C1 [Example 309, 4-{3-(cyanomethyl)-3-[4-(1H-pyrrolo[2,3-b]pyridin-4-yl)-1H-pyrazol-1-yl]azetidin-1-yl}-N-(2-fluorophenyl)piperidine-1-carboxamide]
9.0	N#CCC1(n2cc(-c3ccnc4[nH]ccc34)cn2)CN(C2CCN(C(=O)Nc3ccccc3Cl)CC2)C1 [Example 310, N-(2-chlorophenyl)-4-{3-(cyanomethyl)-3-[4-(1H-pyrrolo[2,3-b]pyridin-4-yl)-1H-pyrazol-1-yl]azetidin-1-yl}piperidine-1-carboxamide]
5.3	N#CCC1(n2cc(-c3ccnc4[nH]ccc34)cn2)CN(C2CCN(C(=O)Nc3ccc(C#N)cc3F)CC2)C1 [Example 312, N-(4-cyano-2-fluorophenyl)-4-{3-(cyanomethyl)-3-[4-(1H-pyrrolo[2,3-b]pyridin-4-yl)-1H-pyrazol-1-yl]azetidin-1-yl}piperidine-1-carboxamide]
11.0	N#CCC1(n2cc(-c3c(F)cnc4[nH]ccc34)cn2)CN(C2CCN(C(=O)c3ccnc(C(F)(F)F)c3F)CC2)C1 [Example 314, (3-[4-(5-Fluoro-1H-pyrrolo[2,3-b]pyridin-4-yl)-1H-pyrazol-1-yl]-1-{1-[3-fluoro-2-(trifluoromethyl)isonicotinoyl]piperidin-4-yl}azetidin-3-yl)acetonitrile]
9.5	N#CCC1(n2cc(-c3c(F)cnc4[nH]ccc34)cn2)CN(C2CCN(C(=O)c3cc(F)cc(C#N)c3)CC2)C1 [Example 316, 3-[(4-{3-(cyanomethyl)-3-[4-(5-fluoro-1H-pyrrolo[2,3-b]pyridin-4-yl)-1H-pyrazol-1-yl]azetidin-1-yl}piperidin-1-yl)carbonyl]-5-fluorobenzonitrile]
4.5	N#CCC1(n2cc(-c3c(F)cnc4[nH]ccc34)cn2)CN(C2CCN(C(=O)c3ccc(C#N)cc3F)CC2)C1 [Example 317, 4-[(4-{3-(cyanomethyl)-3-[4-(5-fluoro-1H-pyrrolo[2,3-b]pyridin-4-yl)-1H-pyrazol-1-yl]azetidin-1-yl}piperidin-1-yl)carbonyl]-3-fluorobenzonitrile]
4.7	N#CCC1(n2cc(-c3c(F)cnc4[nH]ccc34)cn2)CN(C2CCN(C(=O)c3ccc(F)c(C#N)c3)CC2)C1 [Example 318, 5-[(4-{3-(cyanomethyl)-3-[4-(5-fluoro-1H-pyrrolo[2,3-b]pyridin-4-yl)-1H-pyrazol-1-yl]azetidin-1-yl}piperidin-1-yl)carbonyl]-2-fluorobenzonitrile]
4.0	N#CCC1(n2cc(-c3c(F)cnc4[nH]ccc34)cn2)CN(C2CCN(C(=O)c3ccc(F)cn3)CC2)C1 [Example 319]
2.8	N#CCC1(n2cc(-c3c(F)cnc4[nH]ccc34)cn2)CN(C2CCN(C(=O)c3ccncc3F)CC2)C1 [Example 320, {1-[1-(3-fluoroisonicotinoyl)piperidin-4-yl]-3-[4-(5-fluoro-1H-pyrrolo[2,3-b]pyridin-4-yl)-1H-pyrazol-1-yl]azetidin-3-yl}acetonitrile]
3.0	N#CCC1(n2cc(-c3c(F)cnc4[nH]ccc34)cn2)CN(C2CCN(C(=O)c3c(F)cncc3F)CC2)C1 [Example 321, {1-[1-(3,5-difluoroisonicotinoyl)piperidin-4-yl]-3-[4-(5-fluoro-1H-pyrrolo[2,3-b]pyridin-4-yl)-1H-pyrazol-1-yl]azetidin-3-yl}acetonitrile]
4.7	N#CCC1(n2cc(-c3c(F)cnc4[nH]ccc34)cn2)CN(C2CCN(C(=O)c3ccc(O)c(F)c3)CC2)C1 [Example 322, {1-[1-(3-fluoro-4-hydroxybenzoyl)piperidin-4-yl]-3-[4-(5-fluoro-1H-pyrrolo[2,3-b]pyridin-4-yl)-1H-pyrazol-1-yl]azetidin-3-yl}acetonitrile]
5.0	N#CCC1(n2cc(-c3c(F)cnc4[nH]ccc34)cn2)CN(C2CCN(C(=O)c3ccc(O)cc3F)CC2)C1 [Example 323, {1-[1-(2-fluoro-4-hydroxybenzoyl)piperidin-4-yl]-3-[4-(5-fluoro-1H-pyrrolo[2,3-b]pyridin-4-yl)-1H-pyrazol-1-yl]azetidin-3-yl}acetonitrile]
1.7	N#CCC1(n2cc(-c3c(F)cnc4[nH]ccc34)cn2)CN(C2CCN(C(=O)c3cc(C(F)(F)F)ncc3Cl)CC2)C1 [Example 326, {1-{1-[5-chloro-2-(trifluoromethyl)isonicotinoyl]piperidin-4-yl}-3-[4-(5-fluoro-1H-pyrrolo[2,3-b]pyridin-4-yl)-1H-pyrazol-1-yl]azetidin-3-yl}acetonitrile]
4.1	N#CCC1(n2cc(-c3c(F)cnc4[nH]ccc34)cn2)CN(C2CCN(C(=O)C3CCC(F)(F)CC3)CC2)C1 [Example 327, {1-{1-[(4,4-difluorocyclohexyl)carbonyl]piperidin-4-yl}-3-[4-(5-fluoro-1H-pyrrolo[2,3-b]pyridine-4-yl)-1H-pyrazol-1-yl]azetidin-3-yl}acetonitrile]
4.5	N#CCC1(n2cc(-c3c(F)cnc4[nH]ccc34)cn2)CN(C2CCN(C(=O)Nc3ncccc3C(F)(F)F)CC2)C1 [Example 329, 4-{3-(cyanomethyl)-3-[4-(5-fluoro-1H-pyrrolo[2,3-b]pyridin-4-yl)-1H-pyrazol-1-yl]azetidin-1-yl}-N-[3-(trifluoromethyl)pyridin-2-yl]piperidine-1-carboxamide]

SMILES	IC50 Ratio JAK2/JAK1
N#CCC1(n2ccc(-c3ncnc4[nH]ccc34)c2)CN(C2CCN(C(=O)Nc3ncccc3C(F)(F)F)CC2)C1 [Example 290, 4-{3-(cyanomethyl)-3-[3-(7H-pyrrolo[2,3-d]pyrimidin-4-yl)-1H-pyrrol-1-yl]azetidin-1-yl}-N-[3-(trifluoromethyl)pyridin-2-yl]piperidine-1-carboxamide]	3.9
